The source of these data is ChEMBL document CHEMBL5143754, “Novel Bcl-2 Inhibitors Selectively Disrupt the Autophagy-Specific Bcl-2-Beclin 1 Protein-Protein Interaction” (ACS Med Chem Lett, 2022).

The target of data set [1] is T1, Apoptosis regulator Bcl-2 (Homo sapiens, UniProt P10415). Put plainly: Inhibition of biotin-linker-Beclin 1 BH3 peptide binding to human C-terminal 6His-tagged Bcl-2 (1 to 218 residues) expressed in Escherichia coli BL21 Star (DE3) pLysS measured after 3 hrs by AlphaLISA assay. A general note: Alpha assays give light when donor and acceptor beads are brought close together.
T1 sequence (P10415 whole entry, the tested form may be a part): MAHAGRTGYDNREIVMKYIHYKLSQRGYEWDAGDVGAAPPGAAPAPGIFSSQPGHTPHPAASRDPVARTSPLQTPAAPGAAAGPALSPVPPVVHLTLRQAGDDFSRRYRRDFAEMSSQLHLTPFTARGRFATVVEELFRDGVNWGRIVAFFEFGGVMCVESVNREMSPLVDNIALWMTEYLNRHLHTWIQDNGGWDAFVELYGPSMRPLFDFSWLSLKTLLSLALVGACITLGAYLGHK

Data set [2] has as its target T1, Apoptosis regulator Bcl-2. Briefly: Inhibition of biotin-linker-Bax BH3 peptide binding to human C-terminal 6His-tagged Bcl-2 (1 to 218 residues) expressed in Escherichia coli BL21 Star (DE3) pLysS measured after 3 hrs by AlphaLISA assay.
A short description of data set [3]: Half life in ICR/CD-1 mouse liver microsomes at 2 uM preincubated for 5 mins followed by NADPH regenerating system addition by LC-MS/MS analysis. Format: ADME, Microsome. (In general: Microsomes from liver hold many membrane-bound enzymes, among them those of drug oxidation.)

As a reminder, the IC50 is the point on the concentration scale where inhibition reaches its midpoint. Broadly, the half-life is the time in which the quantity being followed falls by half. Read a high half-life as slow decline.

A value given as a limit tells only on which side of the number the result lay.

In turn, `CC(C)C(=O)Oc1ccc(C2=NN(C(=O)c3ccc(Br)cc3)C(c3ccccc3)C2)cc1` (racemic) registered an IC50 in data set [1] of 5450 nM.
On to `O=C(Nc1ccc(C2=NN(C(=O)c3ccc(Br)cc3)C(c3ccccc3)C2)cc1)OC1CC1` (racemic), for which the values for the IC50 in data set [1] and in data set [2] were 44.1 nM and 15100 nM, respectively.
Regarding `CN(C)C(=O)c1ccc(C2=NN(C(=O)c3ccc(Br)cc3)C(c3ccccc3)C2)cc1` (racemic), in data set [1], the IC50 was found to be 5910 nM.
Take `CC(C)(C)OC(=O)Nc1ccc(C2=NN(C(=O)c3ccc(Br)cc3)C(c3ccccc3)C2c2ccccc2)cc1` (racemic): the IC50 in data set [1] was 172 nM.
Still for that read-out and setting: the result for `CS(=O)(=O)Nc1ccc(C2=NN(C(=O)c3ccc(C#N)cc3)C(c3ccco3)C2)cc1` (racemic) reads 7440 nM; that for `COC(=O)c1ccc(C2=NN(C(=O)c3ccc(Br)cc3)C(c3ccccc3)C2)cc1` (racemic), 1640 nM; that for `CC(C)(C)OC(=O)Nc1ccc(C2=NN(C(=O)c3cccnc3)C(c3ccccc3)C2)cc1` (racemic), 14500 nM.
Take `CC1C(c2ccc(NC(=O)OC(C)(C)C)cc2)=NN(C(=O)c2ccc(Br)cc2)C1c1ccccc1` (racemic): the IC50 in data set [1] came out at 27.4 nM.
With `CC(C)OC(=O)c1ccc(C2=NN(C(=O)c3ccc(Br)cc3)C(c3ccccc3)C2)cc1` (racemic), the IC50 turned out to be 110 nM in data set [1] and 4360 nM in data set [2].
The matching figures for `C=CCOC(=O)Nc1ccc(C2=NN(C(=O)c3ccc(Br)cc3)C(c3ccccc3)C2)cc1` (racemic): 31.8 nM and 8830 nM.
Consider `Cc1ccc(C(=O)N2N=C(c3ccc(NS(C)(=O)=O)cc3)CC2c2ccco2)cc1` (racemic), for which the values for the IC50 in data set [1] and in data set [2] were 15900 nM and above 10000 nM, respectively. This compound also registered a half-life at 2 µM in data set [3] of 2.9 min.
In data set [1], `CC(C)(C)OC(=O)Nc1ccc(C2=NN(C(=O)c3ccc(Br)cc3)C(c3ccccn3)C2)cc1` (racemic) displayed an IC50 of 650 nM.
On the same count and under the same terms, with `COc1ccc(C(=O)N2N=C(c3ccc(NS(C)(=O)=O)cc3)CC2c2ccco2)cc1` (racemic) the figure was 10100 nM.
Regarding `CS(=O)(=O)Nc1ccc(C2=NN(C(=O)c3ccc(Br)cc3)C(c3ccco3)C2)cc1` (racemic), the IC50 in data set [1] was 2470 nM. Also, the half-life at 2 µM in data set [3] stood at 2.9 min.
Turning to `CS(=O)(=O)Nc1ccc(C2=NN(C(=O)c3ccc(C(F)(F)F)cc3)C(c3ccco3)C2)cc1` (racemic), in data set [1], the IC50 was determined as 2880 nM. The same compound registered a half-life at 2 µM in data set [3] of 2.9 min.
The like results for `CS(=O)(=O)Nc1ccc(C2=NN(C(=O)c3ccc([N+](=O)[O-])cc3)C(c3ccco3)C2)cc1` (racemic) were, in that order, 1970 nM and 2.9 min.
Turning to `CC(C)OC(=O)Nc1ccc(C2=NN(C(=O)c3ccc(Br)cc3)C(c3ccccc3)C2C)cn1` (racemic), the IC50 in data set [1] is 2 nM; in data set [2], 157 nM.
As to `CCOC(=O)Nc1ccc(C2=NN(C(=O)c3ccc(Br)cc3)C(c3ccccc3)C2)cc1` (racemic), the figures for the IC50 in data set [1] and in data set [2] were 32.8 nM and 6620 nM, respectively.
In data set [1], `CC(C)(C)OC(=O)Nc1ccc(C2=NN(C(=O)c3ccc(Br)cc3)C(c3ccccc3)C2)nc1` (racemic) gave an IC50 of 372 nM.
On the same count and under the same terms, with `CC(C)(C)OC(=O)Nc1ccc(C2=NN(C(=O)c3ccc(Br)cc3)C(c3cccnc3)C2)cc1` (racemic) the figure was 1630 nM; with `CC(C)(C)OC(=O)Nc1ccc(C2=NN(C(=O)c3ccc(Br)cc3)C(c3cncs3)C2)cc1` (racemic), 4360 nM.
The same measure, in the same setting: with `CC(C)(C)OC(=O)Nc1ccc(C2=NN(C(=O)c3ccc(Br)cc3)C(c3ccncc3)C2)cc1` (racemic) the figure was 2780 nM; with `Cc1ccc(C(=O)N2N=C(c3ccc(NC(=O)OC(C)(C)C)cc3)CC2c2ccco2)cc1` (racemic), 3290 nM.
On to `Cc1ccc(C(=O)N2N=C(c3ccc(NS(C)(=O)=O)cc3)CC2c2ccccc2Br)cc1` (configuration not stated), for which the half-life at 2 µM in data set [3] was determined as 2.9 min.
In the case of `CC(C)COC(=O)Nc1ccc(C2=NN(C(=O)c3ccc(Br)cc3)C(c3ccccc3)C2)cc1` (racemic), in data set [1], the IC50 was found to be 164 nM.
The same measure, in the same setting: with `CC(C)(C)OC(=O)Nc1cccc(C2=NN(C(=O)c3ccc(Br)cc3)C(c3ccccc3)C2)c1` (racemic) the figure was 11100 nM; with `CC(C)(C)NC(=O)Nc1ccc(C2=NN(C(=O)c3ccc(Br)cc3)C(c3ccccc3)C2)cc1` (racemic), 9220 nM; with `C#CCCOC(=O)Nc1ccc(C2=NN(C(=O)c3ccc(Br)cc3)C(c3ccccc3)C2)cc1` (racemic), 65 nM.
`CC(C)(C)OC(=O)Nc1ccc(C2=NN(C(=O)c3ccc(Br)cc3)C(c3ccco3)C2)cc1` (racemic) had an IC50 in data set [1] of 1260 nM.
Consider `CC(C)OC(=O)Nc1ccc(C2=NN(C(=O)c3ccc(Br)cc3)C(c3ccccc3)C2)cc1` (racemic), for which the IC50 in data set [1] was found to be 4.4 nM; in data set [2], 881 nM. For the same compound, in data set [3], the half-life at 2 µM worked out at 120 min.
Take `CC(C)(C)OC(=O)Nc1ccc(C2=NN(C(=O)c3ccc(Br)cc3)C(c3nccs3)C2)cc1` (racemic): the IC50 in data set [1] came out at 1610 nM.
Same read-out and setting: the result for `CS(=O)(=O)Nc1ccc(C2=NN(C(=O)c3ccc(Cl)cc3)C(c3ccco3)C2)cc1` (racemic) reads 2720 nM.
Same read-out and setting: the result for `CC(C)(C)OC(=O)Nc1ccc(C2=NN(C(=O)c3ccc(Br)cc3)C(c3ccccc3)C2)cn1` (racemic) reads 309 nM; that for `CC(C)(C)OC(=O)Nc1ccc(C2=NN(C(=O)c3ccc(Br)cc3)C(c3ccoc3)C2)cc1` (racemic), 3820 nM.
For `CC(C)(C)OC(=O)Nc1ccc(C2=NN(C(=O)c3ccc(Br)cc3)C(c3ccccc3)C2)cc1` (racemic), the IC50 in data set [1] was 262 nM. Besides, the half-life at 2 µM in data set [3] turned out to be 120 min.
The like results for `CC(C)(C)OC(=O)Nc1ccc(C2=NN(C(=O)c3ccc([N+](=O)[O-])cc3)C(c3ccccc3)C2)cc1` (racemic) were, in that order, 439 nM and 120 min.
For the compound `COC(=O)Nc1ccc(C2=NN(C(=O)c3ccc(Br)cc3)C(c3ccccc3)C2)cc1` (racemic), the IC50 in data set [1] is 2100 nM.
The same measure, in the same setting: the result for `CS(=O)(=O)Nc1ccc(C2=NN(C(=O)c3ccc(F)cc3)C(c3ccco3)C2)cc1` (racemic) reads 12700 nM.
